How the values were obtained:
[1] = test system: d(CATTGACAGAC)2 (single mismatch site); assay: CD titration, affinity constant for single-mismatch duplex; format: binding; conditions: derived from CD titrations; 5 μM duplex DNA, 10 mM sodium phosphate pH 7.0, 40 mM NaCl, room temperature
Description: (§1) The changes are generally monitored until saturation is reached. The equilibrium constant can be determined using standard techniques, such as Scatchard plot, the McGhee Von Hippel model, or least squares, for analysis.
(§2) All CD measurements were recorded on a Jasco J-810 CD spectropolarimeter at room temperature and cell length of 1 cm. Titrations were performed by incrementally adding aliquots of Im/Py/Py-Pt to a 2600 μL solution of 5 μM duplex DNA. After each addition, an average CD spectrum from 240 to 400 nm (20 accumulations) was recorded. DNA concentration was 5 μM. The concentration of Im/Py/Py-Pt ranged from 0 to 10 μM. Solution conditions were 10 mM sodium phosphate (pH 7.0) and 40 mM NaCl.

[2] = test system: d(CATTGTCAGAC)2 (target site); assay: CD titration, affinity constant for target-site duplex; format: binding; conditions: derived from CD titrations; 5 μM duplex DNA, 10 mM sodium phosphate pH 7.0, 40 mM NaCl, room temperature
Description: as §1, §2

[3] = test system: d(CATTGAGAGAC)2 (double mismatch site); assay: CD titration, affinity constant for double-mismatch duplex; format: binding; conditions: derived from CD titrations; 5 μM duplex DNA, 10 mM sodium phosphate pH 7.0, 40 mM NaCl, room temperature
Description: as §1, §2

[4] = test system: relaxed and negatively supercoiled pUC19 DNA; assay: DNA unwinding experiment by gel electrophoresis; format: binding; conditions: pUC19 plasmid incubated 1.5 hr at 37° C., rb 0-0.074
Description: Lanes: 0 Control rb=0; 1, rb=0.008; 2, rb=0.0.016; 3, rb=0.025; 4, rb=0.033; 5, rb=0.041; 6, rb=0.049; 7, rb=0.057; 8, rb=0.066; 9, rb=0.074.
The unwinding angle was determined to be 13° for this experiment, which is the same as that reported for cisplatin (13°). The plasmid was incubated with Im/Py/Py-Pt for 1.5 hr at 37° C. Lanes: 0 Control rb=0; 1, rb=0.008; 2, rb=0.0.016; 3, rb=0.025; 4, rb=0.033; 5, rb=0.041; 6, rb=0.049; 7, rb=0.057; 8, rb=0.066; 9, rb=0.074. The top bands correspond to the form of nicked plasmid and the bottom bands to the closed, negatively supercoiled plasmid shown in FIG. 4.

[5] = test system: recombinant pSP64 derivative; assay: In vitro transcription assay (inhibition of RNA synthesis); format: biochemical; conditions: increasing molar concentration; after 12 hour platination in the dark at 4° C.; 40 mM Tris-HCl pH 7.9
Description: FIG. 5—In vitro Transcription Assay “trans-Im/Py/Py-[CONH(CH2)2—NH2)Pt(NH3)2Cl” (“DJ1953-2”) The Inhibition of RNA synthesis by DJ1953-2 was assessed using a recombinant pSP64 derivative. Incubations were carried out in 40 mM Tris-HCl (pH 7.9), 6 mM MgCl2, 2 mM spermidine, 10 mM NaCl. Lane (1) 100-500 bases RNA marker; (2) to (8) increasing molar concentration of DJ1953-2. […] Experiments were conducted after 12 hour platination reactions (in the dark at 4° C.).
The Inhibition of RNA synthesis by DJ1953-2 was assessed using a recombinant pSP64 derivative. Incubations were carried out in 40 mM Tris-HCl (pH 7.9), 6 mM MgCl2, 2 mM spermidine, 10 mM NaCl. Lane (1) 100-500 bases RNA marker; Lanes (2) to (8) increasing molar concentration of DJ1953-2. […] Experiments were conducted after 12 hour platination reactions (in the dark at 4° C.).

[6] = test system: relaxed and negatively supercoiled pUC19 DNA; conditions: value reported for cisplatin; cited from earlier work

Row | Molecule | apparent first-order affinity constant K for binding site d(CATTGACAGAC)2 [1] | apparent first-order affinity constant K for binding site d(CATTGTCAGAC)2 [2] | apparent first-order affinity constant K for binding site d(CATTGAGAGAC)2 [3] | unwinding angle [4] [°] | inhibition of RNA synthesis (full-length transcript, 335 bases) [5] | unwinding angle (reported) [6] [°]
1 | Cn1cc(NC(=O)c2cc(NC(=O)c3nccn3C)cn2C)cc1C(=O)NCCCCCC[NH][Pt]([NH2])([NH2])[Cl] [DJ-1953-6, trans-Im/Py/Py-[CONH(CH2)6—NH2)Pt(NH3)2Cl] | 4.4 × 10^5 (0.2) M^−1 | 2.4 × 10^6 (0.1) M^−1 | 1.3 × 10^6 (0.1) M^−1 |  |  | 
2 | trans-Im/Py/Py-Pt(Cl)(NH3)2 |  |  |  | 13 |  | 
3 | tans-Im/Py/Py-[CONH(CH2)2—NH2)Pt(NH3)2Cl [DJ-1953-2] | 5.6 × 10^5 (0.2) M^−1 | 1.2 × 10^6 (0.1) M^−1 | 3.0 × 10^5 (0.1) M^−1 |  | inhibition of the full-length transcript (FLT) can be seen | 
4 | N.N.[Cl][Pt][Cl] [cisplatin, cis-diamminedichloroplatinum(II)] |  |  |  |  |  | 13

Source: patent US20070265240A1, “Sequence Selective Pyrrole and Imidazole Polyamide Metallocomplexes” (priority 2003, published 2007)
